Data from ChEMBL document CHEMBL1201862, “PubChem BioAssay data set” (2004).
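Method: 48-hour compound exposure of cells in 96-well plates, five concentrations, linear interpolation of endpoints. GI50 is the concentration that inhibits growth by half.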 The source made the active and inactive calls. No stated cut-off is given here; in the data, active = GI50 up to about 1.1 µM and inactive = higher.

Tests used:
Experiment in all cases: NCI-60 cell line screen, 48 h
NCI-H522 = system: NCI-H522
OVCAR-4 = system: OVCAR-4
K562 = system: K562
HOP-92 = system: HOP-92
EKVX = system: EKVX
UACC-62 = system: UACC-62
NCI-H460 = system: NCI-H460
SF-539 = system: SF-539
M14 = system: M14
MOLT-4 = system: MOLT-4
SK-MEL-28 = system: SK-MEL-28
HOP-62 = system: HOP-62
SN12C = system: SN12C
SK-MEL-5 = system: SK-MEL-5
COLO 205 = system: COLO 205
HCT-15 = system: HCT-15
CCRF-CEM = system: CCRF-CEM
SK-OV-3 = system: SK-OV-3
CAKI-1 = system: CAKI-1
OVCAR-5 = system: OVCAR-5

Compound	GI50 (NCI-H522)	GI50 (OVCAR-4)	GI50 (K562)	GI50 (HOP-92)	GI50 (EKVX)	GI50 (UACC-62)	GI50 (NCI-H460)	GI50 (SF-539)	GI50 (M14)	GI50 (MOLT-4)	GI50 (SK-MEL-28)	GI50 (HOP-62)	GI50 (SN12C)	GI50 (SK-MEL-5)	GI50 (COLO 205)	GI50 (HCT-15) [µM]	GI50 (CCRF-CEM)	GI50 (SK-OV-3)	GI50 (CAKI-1)	GI50 (OVCAR-5)
O=[N+]([O-])c1cc(I)cc(/C=N/NS(=O)(=O)c2ccc(F)cc2)c1O	20.7 µM (inactive)	38.5 µM (inactive)	21.6 µM (inactive)	18.3 µM (inactive)	30.7 µM (inactive)	20.3 µM (inactive)	21.9 µM (inactive)	27.1 µM (inactive)	27.5 µM (inactive)	24.7 µM (inactive)	29.4 µM (inactive)	26.2 µM (inactive)	22.9 µM (inactive)	22.5 µM (inactive)	18.3 µM (inactive)	27.3	22 µM (inactive)	27.4 µM (inactive)	26.2 µM (inactive)	39 µM (inactive)
CN(C)CC1CCCC/C1=N/O (stereo not given)	> 100 µM (inactive)	> 100 µM (inactive)	> 100 µM (inactive)	> 100 µM (inactive)	> 100 µM (inactive)	> 100 µM (inactive)	> 100 µM (inactive)	> 100 µM (inactive)	> 100 µM (inactive)	> 100 µM (inactive)	> 100 µM (inactive)	> 100 µM (inactive)	> 100 µM (inactive)	> 100 µM (inactive)	> 100 µM (inactive)	> 100	> 100 µM (inactive)	> 100 µM (inactive)	> 100 µM (inactive)	> 100 µM (inactive)
COc1cc2cc(C(=O)N3C[C@H](CCl)c4c3cc(N)c3ccccc43)[nH]c2c(OC)c1OC	0.001 µM (active)	> 10 µM (inactive)	2.39 µM (inactive)	0.0489 µM (active)	0.0103 µM (active)	2.44 µM (inactive)	0.0239 µM (active)	0.0284 µM (active)	0.502 µM (active)	7.82 µM (inactive)	0.0172 µM (active)	3.05 µM (inactive)	0.592 µM (active)	< 0.005 µM (active)	0.0173 µM (active)	0.005	0.051 µM (active)	0.22 µM (active)	< 0.005 µM (active)	0.0906 µM (active)
Fc1ccc(C(OCCN2CC3CC2CN3CCCc2ccccc2)c2ccc(F)cc2)cc1 (stereo not given)	7.98 µM (inactive)	8.95 µM (inactive)	3.11 µM (inactive)	11.9 µM (inactive)	6.01 µM (inactive)	11.1 µM (inactive)	4.48 µM (inactive)	2.37 µM (inactive)	2.02 µM (inactive)	3.61 µM (inactive)	2.96 µM (inactive)	11.4 µM (inactive)	10.3 µM (inactive)	1.84 µM (inactive)	1.68 µM (inactive)	4.63	4.52 µM (inactive)	15 µM (inactive)	10.1 µM (inactive)	11.3 µM (inactive)
NNC(=O)CCC(NS(=O)(=O)c1ccc(Cl)cc1)C(=O)NN (stereo not given)	> 100 µM (inactive)	> 100 µM (inactive)	> 100 µM (inactive)	> 100 µM (inactive)	> 100 µM (inactive)	> 100 µM (inactive)	> 100 µM (inactive)	> 100 µM (inactive)	> 100 µM (inactive)	> 100 µM (inactive)	> 100 µM (inactive)	> 100 µM (inactive)	> 100 µM (inactive)	> 100 µM (inactive)	> 100 µM (inactive)	> 100	> 100 µM (inactive)	> 100 µM (inactive)	> 100 µM (inactive)	> 100 µM (inactive)
Cc1ccc(S(=O)(=O)C2c3nc4ccccc4cc3-c3nc4ccccc4nc32)cc1 (stereo not given)	> 100 µM (inactive)	> 100 µM (inactive)	> 100 µM (inactive)	> 100 µM (inactive)	> 100 µM (inactive)	> 100 µM (inactive)	> 10 µM (inactive)	> 100 µM (inactive)	> 100 µM (inactive)	> 100 µM (inactive)	> 100 µM (inactive)	> 100 µM (inactive)	> 100 µM (inactive)	51.8 µM (inactive)	> 100 µM (inactive)	> 100	> 100 µM (inactive)	0.693 µM (active)	> 100 µM (inactive)	> 100 µM (inactive)
O=C1C(NCCc2cc(Br)c(O)c(Br)c2)=CC(=O)c2ncccc21	3.17 µM (inactive)	6 µM (inactive)	3.21 µM (inactive)	28.1 µM (inactive)	16.3 µM (inactive)	1.83 µM (inactive)	2.37 µM (inactive)	2.37 µM (inactive)	2.51 µM (inactive)	6.71 µM (inactive)	3.21 µM (inactive)	3.28 µM (inactive)	3.8 µM (inactive)	1.47 µM (inactive)	5.7 µM (inactive)	5.79	3.39 µM (inactive)	14.8 µM (inactive)	7.29 µM (inactive)	6.52 µM (inactive)
O=c1ccc(=O)c2c1c1[nH]c3ccccc3c1c1c(=O)c3ccccc3c(=O)c21	> 10 µM (inactive)	> 10 µM (inactive)	5.32 µM (inactive)	0.333 µM (active)	> 10 µM (inactive)	> 10 µM (inactive)	> 10 µM (inactive)	> 10 µM (inactive)	> 10 µM (inactive)	3.24 µM (inactive)	> 10 µM (inactive)	> 10 µM (inactive)	> 10 µM (inactive)	> 10 µM (inactive)	> 10 µM (inactive)	> 10	3.19 µM (inactive)	> 10 µM (inactive)	6.71 µM (inactive)	> 10 µM (inactive)
O=[N+]([O-])c1ccc(-c2csc(=[N+]3CCCCC3)s2)cc1	3.61 µM (inactive)	18.5 µM (inactive)	9.71 µM (inactive)	26.1 µM (inactive)	18 µM (inactive)	34.4 µM (inactive)	13.6 µM (inactive)	19.8 µM (inactive)	36.1 µM (inactive)	5.38 µM (inactive)	36.5 µM (inactive)	3.1 µM (inactive)	4.48 µM (inactive)	5.85 µM (inactive)	2.26 µM (inactive)	29.2	4.91 µM (inactive)	37.7 µM (inactive)	75.7 µM (inactive)	9.75 µM (inactive)
Cn1cccc1-c1ccc(-c2ccc(CO)[se]2)[se]1	10.2 µM (inactive)	2.61 µM (inactive)	0.986 µM (active)	> 100 µM (inactive)	61.1 µM (inactive)	9.57 µM (inactive)	10.9 µM (inactive)	11.5 µM (inactive)	16.1 µM (inactive)	8.79 µM (inactive)	16.6 µM (inactive)	21.6 µM (inactive)	68.9 µM (inactive)	11.4 µM (inactive)	11.4 µM (inactive)	12.6	11.5 µM (inactive)	22.1 µM (inactive)	0.188 µM (active)	53.5 µM (inactive)
N#CC(C(=O)C(=O)NCCCNC(=O)C(=O)C(C#N)c1ccccc1)c1ccccc1 (stereo not given)	> 100 µM (inactive)	> 100 µM (inactive)	> 100 µM (inactive)	> 100 µM (inactive)	> 100 µM (inactive)	> 100 µM (inactive)	> 100 µM (inactive)	> 100 µM (inactive)	> 100 µM (inactive)	> 100 µM (inactive)	> 100 µM (inactive)	> 100 µM (inactive)	> 100 µM (inactive)	> 100 µM (inactive)	> 100 µM (inactive)	> 100	> 100 µM (inactive)	> 100 µM (inactive)	0.0167 µM (active)	> 100 µM (inactive)
CC(C)(C)OC(=O)NCCNCCNc1ccccc1	> 100 µM (inactive)	> 100 µM (inactive)	> 100 µM (inactive)	> 100 µM (inactive)	> 100 µM (inactive)	> 100 µM (inactive)	> 100 µM (inactive)	> 100 µM (inactive)	> 100 µM (inactive)	> 100 µM (inactive)	> 100 µM (inactive)	> 100 µM (inactive)	> 100 µM (inactive)	62.1 µM (inactive)	> 100 µM (inactive)	> 100	> 100 µM (inactive)	> 100 µM (inactive)	> 100 µM (inactive)	> 100 µM (inactive)
C=C1C(=O)[C@@]23CC[C@@H]4[C@@]5(C)CCC[C@@]4(OC5=O)[C@@]2(C)CC[C@@H]1C3	0.497 µM (active)	2.38 µM (inactive)	0.667 µM (active)	4.48 µM (inactive)	3.15 µM (inactive)	1.48 µM (inactive)	1.41 µM (inactive)	2.12 µM (inactive)	2.17 µM (inactive)	1.75 µM (inactive)	2.74 µM (inactive)	2.84 µM (inactive)	3.3 µM (inactive)	0.962 µM (active)	2.11 µM (inactive)	0.67	0.303 µM (active)	9.23 µM (inactive)	0.863 µM (active)	2.12 µM (inactive)
Nc1nc(N)c2cc(Sc3cccc(C(F)(F)F)c3)ccc2n1 [WR-159412]	2.7 µM (inactive)	6.78 µM (inactive)	0.0883 µM (active)	2.94 µM (inactive)	3.56 µM (inactive)	0.755 µM (active)	0.466 µM (active)	3.17 µM (inactive)	1.14 µM (inactive)	0.271 µM (active)	4.46 µM (inactive)	2.12 µM (inactive)	0.729 µM (active)	3.71 µM (inactive)	1.21 µM (inactive)	0.499	0.53 µM (active)	9.08 µM (inactive)	1.17 µM (inactive)	13 µM (inactive)
